Assay results reported in publication PMC12668289 (RSC Chemical Biology, 2025).
Where “and” joins values, the source holds several entries; their conditions need not be identical. Equal entries are not always repeated. Where two headings read alike, the source gives them in different places.

Legend:
SLR [1] = test: BL emission spectra of luciferase-luciferin reactions; format: biochemical, Phrixothrix hirtus; details: 100 mM HEPES pH 8.0, 25 °C
Experimental: (§1) 1.5 Bioluminescence characterizations
(§2) Reactions of luciferases, including Photinus pyralis luciferase (Fluc), Phrixothrix hirtus luciferase (SLR), Pyrearinus termitilluminans […]
(§3) mM D-LH 2 analogues, 3 mM ATP, 6 mM MgCl2, and 10 µM luciferase in 0.2 ml of 100 mM HEPES-NaOH pH 8.0. The bioluminescence (BL) emission characteristics were recorded using a microplate reader in a BL mode (Thermo Scientific, Varioskan, LUX multimode). […]
(§4) sphere-based multichannel spectrometer with a charge-coupled device (CCD) detector. […]

Eluc [2] = test: as above; format: biochemical, Pyrearinus termitilluminans; details: 100 mM HEPES pH 8.0, 25 °C
Experimental: as §1, §2, §3, §4

Fluc [3] = target: T1, Fluc (Photinus pyralis, UniProt P08659); test: Steady-state kinetics of luciferase reactions (luminometer); format: biochemical; details: for appKm: pH 8.0, 25 °C; for Substrate inhibition: concentration range tested 0-300
T1 sequence (P08659 whole entry): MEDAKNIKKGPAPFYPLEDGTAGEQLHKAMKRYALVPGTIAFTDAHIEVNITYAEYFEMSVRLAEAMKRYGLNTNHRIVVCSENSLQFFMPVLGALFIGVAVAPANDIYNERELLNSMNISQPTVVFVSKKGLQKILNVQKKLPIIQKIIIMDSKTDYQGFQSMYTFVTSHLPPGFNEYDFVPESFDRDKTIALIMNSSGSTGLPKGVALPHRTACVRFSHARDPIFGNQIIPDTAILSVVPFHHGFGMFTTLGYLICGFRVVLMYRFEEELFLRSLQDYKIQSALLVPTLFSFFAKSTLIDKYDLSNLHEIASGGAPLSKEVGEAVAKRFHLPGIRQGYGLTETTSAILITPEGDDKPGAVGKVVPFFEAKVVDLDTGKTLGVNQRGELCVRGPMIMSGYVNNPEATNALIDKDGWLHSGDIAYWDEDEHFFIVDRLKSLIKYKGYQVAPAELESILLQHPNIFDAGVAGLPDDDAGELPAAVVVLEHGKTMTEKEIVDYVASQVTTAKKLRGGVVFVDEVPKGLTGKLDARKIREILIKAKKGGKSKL
Experimental: as §1, §2, §3
BL of the
(§5) The reactions were initiated by mixing 25 µl of premixed solution of luciferases/D-LH 2 analogues with 125 µl of 3 mM ATP and 6 mM MgCl2 in 100 mM HEPES-NaOH (pH 8.0). The light intensity (relative light unit, RLU) during 0-300 sec was then collected to represent the overall luciferase activity which was further used for calculating kinetic parameters from the Michaelis-Menten equation. […]

Eluc [4] = test: as above; format: biochemical, Pyrearinus termitilluminans; details: for Substrate inhibition: concentration range tested 0-300; for appKm: pH 8.0, 25 °C
Experimental: as §1, §2, §3
BL of the
as §5

Pmluc-WT = test: as above; format: biochemical, Pyrocoelia miyako; details: for Substrate inhibition: concentration range tested 0-300; for appKm: pH 8.0, 25 °C; for Relative kcat: relative to 2a compound
Experimental: as §1, §2, §3
BL of the
as §5

Fluc [5] = target: T1, Fluc; test: Bioluminescence quantum yield measurement; format: biochemical
Experimental: as §1, §2
(§6) mM D-LH 2 analogues, 3 mM ATP, 6 mM MgCl2, and 10 µM luciferase in 0.2 ml of 100 mM HEPES-NaOH pH 8.0. […]
(§7) A reference light source was used for calibrating a sphere spectrometer equipped with a cooled CCD detector.
(§8) The absolute responsivity of each luciferase-luciferin reaction was calculated based on a linear standardization between total photon flux measured using the sphere spectrometer equipped with a cooled CCD detector and relative count values measured by a luminometer. Total photons emitted from the bioluminescence reaction of each luciferase-luciferin pair were measured using a calibrated luminometer. A reaction containing 0.5-5 nM of each luciferin, 3 mM ATP, 3 mM MgCl2 in 100 mM Tris-HCl (total volume of 200 µl) was placed into the luminometer and background signals were recorded. The reaction was then initiated by adding 20 µl of 0.5 […]
(§9) mM purified luciferases into the reaction tube and the bioluminescence signals were monitored until it decayed to the background level.

SLR [6] = test: Bioluminescence quantum yield measurement; format: biochemical, Phrixothrix hirtus
Experimental: as §1, §2, §6, §7, §8, §9

Pmluc-N230S [7] = test: Bioluminescence quantum yield measurement; format: biochemical, Pyrocoelia miyako
Experimental: as §1, §2, §6, §7, §8, §9

Fluc-ApCPP complex = Fluc-ApCPP complex (Photinus pyralis, UniProt P08659); test: biochemical; format: binding; details: ITC; for N site / G (free energy of binding) / H (enthalpy of binding): Fluc-ApCCP; for Kd / G (free energy of binding) / H (enthalpy of binding): 25 °C; for Kd: preformed Fluc-ApCPP complex, read-out: Dissociation constant (Kd) Fluc-ApCPP: Luciferin
Sequence of Fluc-ApCPP complex (P08659 whole entry, one chain of several): as the sequence (P08659 whole entry) above

Fluc [8] = target: T1, Fluc; test: Stopped-flow luminometry, single turnover light formation and decay; format: biochemical
Experimental: 1.5 Bioluminescence characterizations […]
One syringe was filled with a solution of 50 µM Fluc, 3 mM ATP, and 6 mM
in both syringes were mixed by a stopped-flow device and measured the light emission at 25 °C in triplicate. […]
2.8 Investigation of bioluminescence kinetics using stopped-flow luminometry
reactions were investigated using a stopped-flow spectrophotometer (employing a light-off mode for detecting the luminescence). One

[9] = target: T2, Fluc-containing HEK293T crude lysate (Photinus pyralis, UniProt P08659, K549A/L550V/N119G/N50D/S548I); test: BL assay of crude lysate of HEK293T expressing Fluc; format: cell-based
T2 construct: expressed in transfected cells; host or cells: HEK293T, transient transfection with pGL4.13 [luc2/SV40]
T2 sequence (P08659 whole entry N50D/N119G/S548I/K549A/L550V): as the sequence (P08659 whole entry) above, with N50D, N119G, S548I, K549A, L550V counted along it

SLR (HepG2) = test: Sensitivity of live reporter cell detection (LOD of cell number); format: cell-based, human
Pmluc-N230S (HepG2) = test: as above; format: cell-based, human
Fluc (HeLa) = test: as above; format: cell-based, human; details: for Limit of detection (LOD), cells: Fluc (HeLa)
Pmluc-N230S (HeLa) = test: as above; format: cell-based, human; details: for Limit of detection (LOD), cells: Pmluc-N230S (HeLa); for Sensitivity higher than that of 2a: Pmluc-N230S expressing HeLa
[10] = system: stably Fluc-expressing HepG2 cells; test: Real-time BL monitoring of live cells; format: cell-based, human; details: Fluc HepG2, 100 µM; for Time at which the highest BL signals were achieved: monitored for 3 days
Fluc [11] = target: T1, Fluc; details: Fluc; cited from earlier work
[12] = system: SLR-expressing HeLa cells; test: Real-time BL monitoring of live cells
Experimental: (§10) plasmids and Lipofectamine 3000 were then combined and incubated for 30 minutes to allow formation of DNA and lipid complexes.
(§11) The DNA-lipid complexes were added directly to each well of the empty plate. 1.5 × 10⁵ cells (HepG2 and HeLa cells) were then suspended
(§12) in 150 µL of DMEM supplemented with 10% FBS were added directly into the transfection mixture in each well. The plate was gently
(§13) agitated to ensure even distribution and incubated at 37°C in a humidified 5% CO₂ incubator. The reporter cells obtained at this stage
(§14) were ready for further investigation of their bioluminescence with D-LH2 analogues.
(§15) 2c), 10% FBS and 25 mM HEPES-NaOH (pH 7.0) was added and the BL signals were monitored with F0 (no filter) and F2 (red filter, >620
(§16) nm long-pass filter) by a luminometer (ATTO, Kronos HT, WSL-1563) and while maintaining the cells with 5% CO2 at 37 °C.

Fluc [13] = target: T1, Fluc; test: BL emission spectra of luciferase-luciferin reactions; format: biochemical; details: 100 mM HEPES pH 8.0, 25 °C
Experimental: as §1, §2, §3, §4

Pmluc-N230S [14] = test: Stability of BL signals (half-time of light emission); format: biochemical, Pyrocoelia miyako; details: compared to 2a
Experimental: as §1, §2
as §3, with “multimode). A digital single-lens reflex (DSLR) camera (Nikon D80, CCD sensor) with a 30-second exposure period was used to capture the BL images.” for “multimode).”

[15] = system: Fluc-expressing HeLa cells; test: Real-time BL monitoring of live cells; details: 100 µM
Experimental: as §10, §11, §12, §13, §14, §15, §16

Fluc [16] = target: T1, Fluc; test: Stability of BL signals (half-time of light emission); format: biochemical; details: compared to 2a
Experimental: as §1, §2
as §3, with “multimode). A digital single-lens reflex (DSLR) camera (Nikon D80, CCD sensor) with a 30-second exposure period was used to capture the BL images.” for “multimode).”

[17] = Fluc-expressing HeLa, F0 filter

| SMILES | Bioluminescence wavelength (BLλ) (SLR [1]) [nm] | Bioluminescence wavelength (BLλ) (Eluc [2]) [nm] | appKm (Fluc [3]) [µM] | Substrate inhibition (Eluc [4]) [µM] | appKm (Eluc [4]) [µM] | Substrate inhibition (Pmluc-WT) [µM] | appKm (Pmluc-WT) [µM] | Quantum yield (Fluc [5]) | Quantum yield (SLR [6]) | Quantum yield (Pmluc-N230S [7]) | N site (Fluc-ApCPP complex) | Limit of detection (LOD) of expressed Fluc in crude cell lysates ([9]; HEK293T crude lysate) [ng] | Limit of detection (LOD), cells (SLR (HepG2); F0 (no filter)) [cells] | Limit of detection (LOD), cells (SLR (HepG2); F2 (red filter)) [cells] | Limit of detection (LOD), cells (Pmluc-N230S (HepG2); F0 (no filter)) [cells] | Limit of detection (LOD), cells (Pmluc-N230S (HepG2); F2 (red filter)) [cells] | Limit of detection (LOD), cells (Fluc (HeLa); F0 (no filter)) [cells] | Limit of detection (LOD), cells (Fluc (HeLa); F2 (red filter)) [cells] | Limit of detection (LOD), cells (Pmluc-N230S (HeLa); F0 (no filter)) [cells] | Time at which the highest BL signals were achieved [10] [h] | further results |
| --- | --- | --- | --- | --- | --- | --- | --- | --- | --- | --- | --- | --- | --- | --- | --- | --- | --- | --- | --- | --- | --- |
| O=C(O)[C@H]1CSC(c2nc3ccc(O)cc3s2)=N1 [Compound 2a, D-luciferin, reference compound] | 625 | 537 | 3.3 | > 1e+06 | 0.1 | > 4 | 0.1 | 0.44 and 0.44 ± 0.04 | 0.16 and 0.160 ± 0.005 | 0.16 and 0.160 ± 0.018 | 0.32 | 51.6 | 802 | 1071 | 2010 | 1880 | 4661 | 997 | 1428 | 44 | Observed rate constant (kobs) Light decay Faster phase (Fluc [8]): 1.57 and 1.57 ± 0.02 s^−1; Observed rate constant (kobs) Light decay Slower phase (Fluc [8]): 0.29 and 0.29 ± 0.00 s^−1; Observed rate constant (kobs) Light formation (Fluc [8]): 6.64 and 6.64 ± 0.05 s^−1; Limit of detection (LOD), cells (Pmluc-N230S (HeLa); F2 (red filter)): 1185 cells; Quantum yield (Fluc [11]): 41%; Time BL signals are prolonged before signal decreasing [12]: up to 10 h |
| Cc1cc2nc(C3=N[C@@H](C(=O)O)CS3)sc2cc1O [Compound 2b, 5’-methyl-D-luciferin] | 626 | 560 | 3.1 | > 8 | 0.7 | > 2 | 0.4 | 0.52 and 0.52 ± 0.01 | 0.19 and 0.190 ± 0.005 | 0.17 and 0.170 ± 0.034 | 0.33 | 4.6 | 643 | 783 | 752 | 247 | 1457 | 415 | 630 | 35 | Bioluminescence wavelength (BLλ) (Fluc [13]): 605 nm; Substrate inhibition (Fluc [3]): > 10.0 µM; Relative kcat (Pmluc-WT): 110.0; BL half-life (t1/2) longer than that of 2a (Pmluc-N230S [14]): about 1.7 fold; Kd (Fluc-ApCPP complex): 4 ± 0.02 µM; G (free energy of binding) (Fluc-ApCPP complex): -7.60 kcal/mol; H (enthalpy of binding) (Fluc-ApCPP complex): -4.60 kcal/mol; Observed rate constant (kobs) Light decay Faster phase (Fluc [8]; Fluc single turnover, 25 °C): 1.55 s⁻¹ and 1.55 ± 0.15 s⁻¹; Observed rate constant (kobs) Light decay Slower phase (Fluc [8]; Fluc single turnover, 25 °C): 0.27 s⁻¹ and 0.27 ± 0.00 s⁻¹; Observed rate constant (kobs) Light formation (Fluc [8]; Fluc single turnover, 25 °C): 9.63 s⁻¹ and 9.63 ± 0.04 s⁻¹; Sensitivity to detect Fluc better than natural D-LH2 (2a) ([9]; HEK293T crude lysate, from LOD): about 11.2 fold; Sensitivity greater than 2a ([9]; HEK293T lysate, varied substrate concentration and lysate amount): about 2 fold; Light intensity greater than 2a ([9]; fixed amount of HEK293T crude lysate, varied concentration): about 2.5 fold; Limit of detection (LOD), cells (Pmluc-N230S (HeLa); F2 (red filter)): 812 cells; Sensitivity higher than that of 2a (Pmluc-N230S (HeLa); F0 filter): about 2.3 fold; Sensitivity higher than that of 2a (Pmluc-N230S (HeLa); F2 filter): ~1.4 fold; Highest signal obtained at faster rate than that of 2a [10]: 1.2 fold; Time BL signals increase or are prolonged before decreasing [15]: up to 13 h; Time BL signals are prolonged before signal decreasing ([12]; SLR-expressing HeLa, 100 µM): up to 10 h |
| Cc1cc2nc(C3=N[C@@H](C(=O)O)CS3)sc2c(C)c1O [Compound 2c, 5’,7’-di-methyl-D-luciferin] | 634 | 573 | 2.5 | > 12.5 | 3.5 | > 8.3 | 1.8 | 0.20 and 0.200 ± 0.007 | 0.16 and 0.160 ± 0.003 | 0.15 and 0.150 ± 0.014 | 3.34 | – | 500 | 613 | – | – | – | 350 | – | 6 | Bioluminescence wavelength (BLλ) (Fluc [13]): 628 nm; Substrate inhibition (Fluc [3]): > 12.5 µM; Relative kcat (Fluc [3]; relative to 2a compound): 67.8; Relative kcat (Eluc [4]; relative to 2a compound): 0.3; Relative kcat (Pmluc-WT): 7.7; BL half-life (t1/2) longer than that of 2a (Fluc [16]): about 1.7 fold; BL half-life (t1/2) longer than that of 2a (Pmluc-N230S [14]): ~5.6 fold; Kd (Fluc-ApCPP complex): 25.3 ± 1.1 µM; G (free energy of binding) (Fluc-ApCPP complex): -6.01 kcal/mol; H (enthalpy of binding) (Fluc-ApCPP complex): -4.85 kcal/mol; kobs of light decay (faster and slower phases) slower than those of 2a and 2b (Fluc [8]; Fluc): 5–6 fold; Observed rate constant (kobs) Light decay Faster phase (Fluc [8]; Fluc single turnover, 25 °C): 0.27 s⁻¹ and 0.27 ± 0.00 s⁻¹; Observed rate constant (kobs) Light decay Slower phase (Fluc [8]; Fluc single turnover, 25 °C): 0.05 s⁻¹ and 0.05 ± 0.00 s⁻¹; Observed rate constant (kobs) Light formation (Fluc [8]; Fluc single turnover, 25 °C): 7.28 s⁻¹ and 7.28 ± 0.02 s⁻¹; Sensitivity higher than that of 2a (Fluc (HeLa); [17]): ~13.0 fold; Sensitivity higher than that of 2b (Fluc (HeLa); [17]): about 4.1 fold; Sensitivity higher than that of 2a (Fluc (HeLa); Fluc-expressing HeLa, F2 filter): about 2.8 fold; Highest signal obtained at faster rate than that of 2a [10]: 7.3 fold; Time BL signals increase or are prolonged before decreasing [15]: up to 13 h; Time BL signals are prolonged before signal decreasing ([12]; SLR-expressing HeLa, 100 µM): up to 18 h |
